Where two headings read alike, the source gives them in different places. No end group written: not given here.
Columns and labels:
S. aureus (ATCC 6538) = type: cell-based, Staphylococcus aureus
Method: (§1) Two MDR bacteria, MDR-E. coli (LZ-7, drug resistance: compound sulfamethoxazole, ampicillin, gentamicin, ciprofloxacin, levofloxacin) and MDR-A. baumannii (AB-29, drug resistance: 11 kinds of antibiotics including cephalosporins), along with three pathogenic bacteria, E. coli (ATCC 25922), S. aureus (ATCC 6538), and A. baumannii (309-14) were included in the study. A single colony of each bacterium was cultured in Luria-Bertani (LB) medium at 37°C and 180 rpm for 12–16 h until the logarithmic growth phase for use.
(§2) The MIC of the peptides against a range of bacteria was determined using the microbroth dilution method with slight modifications ([62]). In brief, the bacteria mentioned above were dispersed in the LB (10^5 CFU mL^−1) and were mixed with gradient concentrations (0.25 μM–16 μM) of SAMPs in the 96-well plate (n = 3). After incubation at 37°C for 16–18 h, the absorbance at 600 nm was measured using a microplate reader (Thermo Fisher Scientific, Multiskan MK3, China). The lowest peptide concentration with no absorbance increase was defined as the MICs. The bacterial solution in the 96-well plate was then transferred to solid LB medium to culture single colonies (n = 3), and the lowest peptide concentration at which almost no colonies survive (less than 0.01%) was defined as the MBCs.

E. coli (ATCC 25922) = type: cell-based, Escherichia coli
Method: as §1, §2

MDR-E. coli (LZ-7) = type: cell-based, Escherichia coli
Method: as §1, §2

A. baumannii (309-14) = type: cell-based, Acinetobacter baumannii
Method: as §1, §2

MDR-A. baumannii (AB-29) = type: cell-based, Acinetobacter baumannii
Method: as §1, §2

S. aureus and E. coli = assay: Drug resistance assay (serial passage); type: cell-based; conditions: Colistin E 4 μg mL−1, 30 days
Method: The evaluation of drug resistance in SAMPs was performed through MIC value detection ([74]). Resistance was defined as a greater than fourfold increase in the MIC from its initial value. S. aureus and E. coli grown in LB medium supplemented with 0.5 × MIC of each SAMP were repeated for 30 days, followed by determination of MIC values using the same methodology outlined above (n = 3). Meanwhile, Colistin E (4 μg mL^-1) was used as the control group to induce bacterial resistance in the same way.

S. aureus = type: cell-based, Staphylococcus aureus; conditions: 12 h
Method: as §2
(§3) Based on previous methods, stability was analyzed by monitoring the changes in the antimicrobial efficacy of SAMPs in the presence of salts and serum ([37], [38]). The SAMPs underwent incubation with physiological salts (150 mM NaCl, 4.5 mM KCl) or serum at 37°C for 12 h, followed by measurement of their MICs using the previously outlined method (n = 3).

E. coli = type: cell-based, Escherichia coli; conditions: 12 h
Method: as §2, §3

[1] = system: S. aureus, E. coli, A. baumannii, MDR-E. coli, MDR-A. baumannii; type: cell-based
Method: as §1, §2

Substance	MBC (S. aureus (ATCC 6538); ATCC 6538) [µM]	MIC (S. aureus (ATCC 6538); ATCC 6538) [µM]	MBC (E. coli (ATCC 25922); ATCC 25922) [µM]	MIC (E. coli (ATCC 25922); ATCC 25922) [µM]	MBC (MDR-E. coli (LZ-7); MDR- (LZ-7)) [µM]	MIC (MDR-E. coli (LZ-7); MDR- (LZ-7)) [µM]	MBC (A. baumannii (309-14); 309-14) [µM]	MIC (A. baumannii (309-14); 309-14) [µM]	MBC (MDR-A. baumannii (AB-29); MDR- (AB-29)) [µM]	MIC (MDR-A. baumannii (AB-29); MDR- (AB-29)) [µM]	MIC after treatment, KCl (S. aureus) [µM]	MIC after treatment, NaCl (S. aureus) [µM]	MIC after treatment, Serum (S. aureus) [µM]	MIC after treatment, KCl (E. coli) [µM]	MIC after treatment, NaCl (E. coli) [µM]	MIC after treatment, Serum (E. coli) [µM]	other results
Colistin E [reference compound]	–	–	–	–	–	–	–	–	–	–	–	–	–	–	–	–	MIC (S. aureus (ATCC 6538); S. aureus, microbroth dilution in LB, 10^5 CFU mL−1, 37°C, 16–18 h, absorbance 600 nm, n = 3): >256 µM; MIC (E. coli (ATCC 25922); E. coli, microbroth dilution in LB, 10^5 CFU mL−1, 37°C, 16–18 h, absorbance 600 nm, n = 3): 256 µM; MIC (MDR-E. coli (LZ-7); MDR-E. coli, microbroth dilution in LB, 10^5 CFU mL−1, 37°C, 16–18 h, absorbance 600 nm, n = 3): >256 µM; MIC (A. baumannii (309-14); A. baumannii, microbroth dilution in LB, 10^5 CFU mL−1, 37°C, 16–18 h, absorbance 600 nm, n = 3): 32 µM; MIC (MDR-A. baumannii (AB-29); MDR-A. baumannii, microbroth dilution in LB, 10^5 CFU mL−1, 37°C, 16–18 h, absorbance 600 nm, n = 3): 128 µM; antimicrobial activity after resistance induction (S. aureus and E. coli): significant decrease in the antimicrobial activity
FLKLRLWGRLLWKLK-NH2 [GR]	2	1	8	2	16	16	2	2	2	0.5	1	1	1	2	2	2	–
FLKLRLWGKLLWKLK-NH2 [GK]	2	1	8	2	16	16	4	2	4	1	1	1	1	2	2	2	–
FLKLRLWRRLLWKLK-NH2 [RR]	2	0.5	2	0.5	8	2	1	1	2	0.5	0.5	0.5	0.5	0.5	1	0.5	–
FLKLRLWKRLLWKLK-NH2 [KR]	0.5	0.25	0.5	0.25	4	1	0.25	0.25	0.25	0.25	0.25	0.25	0.25	0.25	0.25	0.25	MIC, common pathogenic bacteria and MDR bacteria [1]: 0.25 to 2 µM
FLALALIQEAIAKLK-NH2 [FA, Kassporin-KS1, reference compound]	>128	>32	>128	>32	>128	>32	>128	>32	>128	>32	–	–	–	–	–	–	MIC, three prevalent pathogenic bacteria [1]: > 32 µM
FLKLRLWRKLLWKLK-NH2 [RK]	1	0.25	1	0.25	4	2	0.5	0.5	0.5	0.25	0.25	0.25	0.25	0.25	0.25	0.25	MIC, common pathogenic bacteria and MDR bacteria [1]: 0.25 to 2 µM
FLKLRLWKKLLWKLK-NH2 [KK]	2	0.5	4	0.5	8	2	1	0.5	1	0.5	0.5	1	0.5	0.5	1	0.5	–
